# Measurements taken from BindingDB's records for doi:10.1074/jbc.M113.487777 (McGill University, 2013).
# Molecular target: T1, Inositol-pentakisphosphate 2-kinase (Mouse-ear cress, UniProt Q93YN9)
# T1 sequence (Q93YN9 whole entry): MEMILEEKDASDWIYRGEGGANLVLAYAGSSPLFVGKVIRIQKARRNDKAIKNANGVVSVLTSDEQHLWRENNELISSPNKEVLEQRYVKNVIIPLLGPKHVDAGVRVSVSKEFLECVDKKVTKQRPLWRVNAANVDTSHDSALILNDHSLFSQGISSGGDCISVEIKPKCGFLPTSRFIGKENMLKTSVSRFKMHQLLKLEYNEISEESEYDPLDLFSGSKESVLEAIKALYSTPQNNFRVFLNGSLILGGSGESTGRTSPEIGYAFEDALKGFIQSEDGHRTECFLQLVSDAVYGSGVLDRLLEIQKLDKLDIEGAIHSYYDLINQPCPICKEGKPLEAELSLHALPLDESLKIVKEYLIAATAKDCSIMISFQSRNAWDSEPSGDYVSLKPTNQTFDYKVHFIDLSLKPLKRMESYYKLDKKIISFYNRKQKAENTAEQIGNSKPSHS
# Assay: Isothermal Titration Calorimetry (ITC)
# Details: pH 7.5; 25 °C
# Method: Experiments were performed on a MicroCal iTC200 titration calorimeter (GE Healthcare). Wild-type IPK1 was purified and dialyzed into ITC buffer containing 50 mM HEPES (pH 7.5), 6 mM MgCl2, 150 mM NaCl, and 1 mM tris(2-carboxyethyl)phosphine (pH 7.0). After protein dialysis was complete, dialysis buffer was used to dissolve the ligands, IP, and AMP-PNP (Jena Bioscience). Titration experiments were performed at 25 °C with 100 uM IPK1 and1mM AMP-PNP in the cell and 1-2 mM IP in the syringe to ensure a final IP:IPK1 molar ratio of at least 2:1. Titration experiments were performed at least twice for each IP, and one set was chosen to represent data.
row,SMILES,Kd [µM]
1,"O=P(O)(O)O[C@H]1[C@H](O)[C@@H](OP(=O)(O)O)[C@H](OP(=O)(O)O)[C@@H](OP(=O)(O)O)[C@H]1O [1,3,4,5-Inositol tetrakisphosphate (1,3,4,5-IP4)]",18.2
2,"O=P(O)(O)O[C@@H]1[C@@H](O)[C@H](OP(=O)(O)O)[C@@H](OP(=O)(O)O)[C@@H](O)[C@H]1OP(=O)(O)O [1,3,4,6-Inositol tetrakisphosphate (1,3,4,6-IP4)]",26.9
3,"O=P(O)(O)O[C@@H]1[C@@H](OP(=O)(O)O)[C@H](OP(=O)(O)O)[C@H](O)[C@H](OP(=O)(O)O)[C@H]1OP(=O)(O)O [Inositol 1,3,4,5,6-pentakisphosphate (IP5)]",0.6

# Other lines, results leading:
row,Kd [µM],SMILES
1,8.2,"O=P(O)(O)O[C@@H]1[C@@H](OP(=O)(O)O)[C@H](OP(=O)(O)O)[C@@H](O)[C@@H](O)[C@H]1OP(=O)(O)O [1,4,5,6-Inositol tetrakisphosphate (1,4,5,6-IP4)]"
2,7.52,"O=P(O)(O)O[C@H]1[C@H](OP(=O)(O)O)[C@@H](OP(=O)(O)O)[C@@H](O)[C@@H](O)[C@@H]1OP(=O)(O)O [3,4,5,6-Inositol tetrakisphosphate (3,4,5,6-IP4)]"
